Assay results published in paper PMC3293837, “Biophysical Property and Broad Anti-HIV Activity of Albuvirtide, a 3-Maleimimidopropionic Acid-Modified Peptide Fusion Inhibitor” (PLoS ONE, 2012).
Where two headings read alike, the source gives them in different places.

Tests used:
[1] = tested on: HIV-1NL4-3 Env-pseudotyped virus; format: cell-based; details: TZM-bl
Experimental: (§2) HIV-1 pseudoviruses were generated as described previously [32], [55]–[56]. Briefly, 293T cells (5×10^6 cells in 15 ml of growth medium in a T-75 culture flask) were cotransfected with 10 µg of an Env-expressing plasmid and 20 µg of a backbone plasmid pSG3deltaEnv that encodes Env-defective, luciferase-expressing HIV-1 genome using Lipofectamine 2000 reagent (Invitrogen). Pseudovirus-containing culture supernatants were harvested 48 hours after transfection and filtered by 0.45-mm pore size, and stored at −80°C in 1-ml aliquots until use. The 50% tissue culture infectious dose (TCID50) of a single thawed aliquot of each pseudovirus batch was determined in TZM-bl cells. […] Briefly, the peptides were prepared with ten series dilutions in a 3-fold stepwise manner and mixed with 100 TCID50 viruses and incubated 1 hour at room temperature. The mixture was added to TZM-bl cells (10^4/well) and incubation at 37°C for 48 hours. Luciferase activity was measured using luciferase assay regents (Promega, Medison, WI) and a Luminescence Counter (Promega) according to the manufacture's instructions.

[2] = tested on: HIV-1NL4-3 N43K pseudovirus; format: cell-based; details: HIV-1NL4-3 N43K; TZM-bl, 48 h; mean ± SD of three independent experiments
Experimental: (§3) The mutations were created using double-stranded DNA templates and selection of mutants with DpnI. For each mutation, the two primers contained the desired mutation and occupied the same starting and ending positions on opposite strands of the plasmid DNA. DNA synthesis was carried out by PCR in a 50-µL reaction volume using 1 µL of denatured plasmid template (1 ng/µL), 50 pmol of upper and lower primers and 5 U of high-fidelity thermostable polymerase PrimeStar (Takara, Dalian, China). PCR amplification was carried out for one cycle of denaturation at 98°C for 5 min, then 18 cycles of 98°C for 15 s and 68°C for 15 min, followed a final extension at 72°C for 10 min. The amplicons were treated with the restriction enzyme DpnI for 1 h at 37°C. DpnI-resistant molecules, which were rich in the desired mutants, were recovered by transforming Escherichia coli strain-DH5α to antibiotic resistance. The successful mutations were confirmed by sequencing.
as §2

[3] = tested on: HIV-1NL4-3 I37T pseudovirus; format: cell-based; details: HIV-1NL4-3 I37T; TZM-bl, 48 h; mean ± SD of three independent experiments
Experimental: as §2

[4] = tested on: Du172.17 pseudovirus (subtype C); format: cell-based, HIV-1; details: Du172.17, subtype C, R5; TZM-bl, 48 h; triplicate, mean ± SD of three independent experiments
From the text: (§1) A panel of plasmids encoding HIV-1 Envs were obtained through the AIDS Research and Reference Reagent Program (ARRRP), Division of AIDS, NIAID, NIH, including subtype A Env clones pSVIII-92RW020.5 and 92UG037.8 from Dr. B.H. Hahn; subtype B Env clones SC422661.8, TRO.11 and AC10.0.29 from Drs. D. Montefiori, F. Gao and M. Li, pRHPA4259.7 and pREJO4541.67 from Drs. B.H. Hahn and J.F. Salazar-Gonzalez, and pCAAN5342.A2 from Drs. B.H. Hahn and D.L. Kothe; subtype C Env clones Du172.17 and Du422.1 from Drs. D. Montefiori, F. Gao, S. Abdool Karim and G. Ramjee, CAP45.2.00.G3 from Drs. L. Morris, K. Mlisana and D. Montefiori, ZM197M.PB7 from Drs. B.H. Hahn, Y. Li and J.F. Salazar-Gonzalez, ZM109F.PB4 from Drs. E. Hunter and C. Derdeyn. Six CRF07_BC Env clones (CH064.20, CH070.1, CH091.9, CH110.2, CH119.10 and CH120.6) were generous gifts by Dr. Y. Shao in the Chinese Center for Disease Control and Prevention, Beijing, China. A panel of Env clones derived from subtype B′ (B01, B02, B04, and 43-22), CRF01_AE (SHX335.24, YN192.31, AE01, AE03, GX2010.36, GX11.13, GX2010.36H, BJ5.11), and CRF07_BC (BC02, BC03, BC05, BC07, BC14, SC19-15, BJ22-5, YN148R-9, XJ50-6, HB5-3) were kindly provided by Dr. Y. Wang from the National Institute for the Control of Pharmaceutical and Biological Products, Beijing, China.

[5] = tested on: 43-22 pseudovirus (subtype B′); format: cell-based, HIV-1; details: 43-22, B′, R5; TZM-bl, 48 h; triplicate, mean ± SD of at least three independent experiments
From the text: as §1

[6] = tested on: BC03 pseudovirus (CRF07_BC); format: cell-based, HIV-1; details: R5, TZM-bl, 48 h, triplicate, mean ± SD of at least three independent experiments
From the text: as §1

[7] = tested on: TRO.11 pseudovirus (subtype B); format: cell-based, HIV-1; details: TRO.11, subtype B, R5; TZM-bl, 48 h; triplicate, mean ± SD of three independent experiments
From the text: as §1

[8] = tested on: B01 pseudovirus (subtype B′); format: cell-based, HIV-1; details: R5, TZM-bl, 48 h, triplicate, mean ± SD of at least three independent experiments
From the text: as §1

[9] = tested on: BJ5.11 pseudovirus (CRF01_AE); format: cell-based, HIV-1; details: BJ5.11, CRF01_AE, R5; TZM-bl, 48 h; triplicate, mean ± SD of at least three independent experiments
From the text: as §1

[10] = tested on: CH064 pseudovirus (CRF07_BC); format: cell-based, HIV-1; details: R5, TZM-bl, 48 h, triplicate, mean ± SD of at least three independent experiments
From the text: as §1

[11] = tested on: GX2010.36H pseudovirus (CRF01_AE); format: cell-based, HIV-1; details: R5, TZM-bl, 48 h, triplicate, mean ± SD of at least three independent experiments
From the text: as §1

[12] = tested on: BC02 pseudovirus (CRF07_BC); format: cell-based, HIV-1; details: R5, TZM-bl, 48 h, triplicate, mean ± SD of at least three independent experiments
From the text: as §1

[13] = tested on: 92UG037.8 pseudovirus (subtype A); format: cell-based, HIV-1; details: 92UG037.8, subtype A, R5; TZM-bl, 48 h; triplicate, mean ± SD of three independent experiments
From the text: as §1

[14] = tested on: HIV-1NL4-3 D36S/V38M pseudovirus; format: cell-based; details: HIV-1NL4-3 D36S/V38M; TZM-bl, 48 h; mean ± SD of three independent experiments
Experimental: as §3, §2

[15] = tested on: HIV-1NL4-3 I37V/V38T infectious molecular clone; format: cell-based
Experimental: The mutant viruses were generated by transient transfection of NL4-3 plasmids into 293T cells. The virus stocks were harvested 48 hours post-transfection and quantified for TCID50. […] In brief, 100 TCID50 viruses were used to infect TZM-bl cells in the presence or absence of serially diluted peptides. Two days post-infection, the cells were harvested and lysed in reporter lysis buffer, and the luciferase activity was measured. The IC50 was calculated as described above using GraphPad Prism software (GraphPad Prism software Inc., San Diego, CA).

[16] = tested on: T20-resistant HIV-1NL4-3 variants; details: HIV-1NL4-3 with single or double gp41 mutations
Experimental: Luciferase activity was measured using luciferase assay regents (Promega, Medison, WI) and a Luminescence Counter (Promega) according to the manufacture's instructions.

[17] = tested on: N36 (NHR target sequence); assay: CD spectroscopy (C-peptide alone or with N36); format: physicochemical, HIV-1; details: PBS pH 7.2, 10 µM (methods), room temperature
Experimental: CD spectroscopy was performed as previously described, [26]. […] The isolated N- and C-peptides were also tested. […] Data were averaged over three accumulations.

[18] = tested on: HIV-1NL4-3 V38M pseudovirus; format: cell-based
Experimental: as §2

[19] = tested on: HIV-1NL4-3 D36G pseudovirus; format: cell-based
Experimental: as §2

HIV-1 = details: cited from earlier work

enfuvirtide
IC50 ([1]; Fig. 5A, 100 TCID50, 48 h 37°C, luciferase, mean, three independent experiments, read-out: mean IC50, virus entry): 70.7 nM | IC50 ([1]; HIV-1NL4-3 WT pseudovirus, Table 3, 48 h, mean ± SD of three independent experiments, read-out: IC50): 62.5 ± 11.9 nM | IC50 [2]: 262 ± 44.4 nM | IC50 [3]: 300 ± 55.1 nM | IC50 [4]: 11.6 ± 5.29 nM | IC50 [5]: 12.1 ± 3.24 nM | IC50 [6]: 3.46 ± 0.41 nM | IC50 [7]: 334 ± 48.9 nM | IC50 [8]: 49.5 ± 2.41 nM | IC50 [9]: 342 ± 132 nM | IC50 [10]: 61.7 ± 12.5 nM | IC50 [11]: 25.9 ± 0.28 nM | IC50 [12]: 2.6 ± 0.48 nM | IC50 [13]: 3.55 ± 0.95 nM | IC50 [14]: 322 ± 60.3 nM | IC50 ([15]; I37V/V38T infectious molecular clone of HIV-1NL4-3, TZM-bl, 100 TCID50, two days, mean ± SD of three independent experiments): > 750 nM | inhibitory activity on I37V/V38T virus (in words) ([15]; infectious molecular clone, T20 up to 750 nM): no any inhibitory activity at a concentration up to 750 nM | activity on T20-resistant variants (in words) [16]: high level resistance | CD spectrum / α-helicity with N36 ([17]; equimolar N36, 37°C 30 min, 222 nm): could not form a typical α-helical complex with N36 | CD spectrum / α-helical conformation of C-peptide alone ([17]; peptide alone, 190-260 nm): minimum α-helical conformation | IC50 ([18]; HIV-1NL4-3 V38M, TZM-bl, 48 h, mean ± SD of three independent experiments): 646 ± 57.7 nM | resistance change with V38M (in words) ([18]; V38M single mutation): high-fold resistance changes | increase in sensitivity of D36G mutant ([19]; D36G relative to WT HIV-1NL4-3): 8.3 fold | IC50 ([19]; HIV-1NL4-3 D36G, TZM-bl, 48 h, mean ± SD of three independent experiments): 7.5 ± 1.3 nM | inhibition of viral entry (in words) (HIV-1): low nanomolar concentration
